# Measured values reported in the Kinase Knowledgebase extract (Sharma et al. 2016).
# Biological target: PIK3CA (human) (UniProt P42336)
# Assay: Inhibition of PIK3CA Kinase Activity
# Chain of PIK3CA (human) (P42336 whole entry, looked up): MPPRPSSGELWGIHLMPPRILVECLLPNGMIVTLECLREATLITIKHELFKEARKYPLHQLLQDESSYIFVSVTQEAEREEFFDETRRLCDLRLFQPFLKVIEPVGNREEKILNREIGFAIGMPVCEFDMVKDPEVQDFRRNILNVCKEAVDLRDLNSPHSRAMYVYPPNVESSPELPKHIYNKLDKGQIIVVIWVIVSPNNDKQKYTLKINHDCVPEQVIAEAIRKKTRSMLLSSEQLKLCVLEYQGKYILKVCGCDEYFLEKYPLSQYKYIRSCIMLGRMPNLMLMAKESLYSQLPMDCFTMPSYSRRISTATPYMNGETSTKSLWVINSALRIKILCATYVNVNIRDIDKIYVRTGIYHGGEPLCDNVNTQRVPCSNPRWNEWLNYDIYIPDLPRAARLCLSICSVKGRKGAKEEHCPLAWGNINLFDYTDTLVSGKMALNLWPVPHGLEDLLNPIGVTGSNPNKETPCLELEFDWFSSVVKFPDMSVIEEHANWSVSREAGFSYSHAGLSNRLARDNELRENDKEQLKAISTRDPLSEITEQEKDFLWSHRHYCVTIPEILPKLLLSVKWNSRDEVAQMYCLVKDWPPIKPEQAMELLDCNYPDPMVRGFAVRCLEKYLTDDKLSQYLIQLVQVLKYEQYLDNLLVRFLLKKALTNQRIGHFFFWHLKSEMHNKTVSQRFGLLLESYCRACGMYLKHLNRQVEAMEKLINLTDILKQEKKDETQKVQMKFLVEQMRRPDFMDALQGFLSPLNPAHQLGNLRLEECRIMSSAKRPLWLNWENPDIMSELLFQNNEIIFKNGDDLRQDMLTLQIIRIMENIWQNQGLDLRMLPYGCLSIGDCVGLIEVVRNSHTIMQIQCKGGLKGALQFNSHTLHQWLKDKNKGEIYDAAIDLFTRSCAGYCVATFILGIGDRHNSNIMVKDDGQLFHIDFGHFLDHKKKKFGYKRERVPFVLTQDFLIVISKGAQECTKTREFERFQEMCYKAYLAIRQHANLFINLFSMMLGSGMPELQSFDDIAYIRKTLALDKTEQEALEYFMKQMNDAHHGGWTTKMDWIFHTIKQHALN
row,IC50 [nM],SMILES
1,< 1000,CC1CCCCC1n1cnc2c(-c3cnc(N)cn3)nc(N3CCOCC3)nc21 (stereo not given)
2,< 1000,Nc1cnc(-c2nc(N3CCOCC3)nc3c2ncn3-c2ccc3c(c2)OCO3)cn1
3,< 1000,Nc1cnc(-c2nc(N3CCOCC3)nc3c2ncn3C2CCCC2)cn1
4,< 1000,CC(C1CC1)n1cnc2c(-c3cnc(N)cn3)nc(N3CCOCC3)nc21 (stereo not given)
5,< 1000,CCC(C)n1cnc2c(-c3cnc(N)cn3)nc(N3CCOCC3)nc21 (stereo not given)
6,< 1000,CC(C)C(C)n1cnc2c(-c3cnc(N)cn3)nc(N3CCOCC3)nc21 (stereo not given)
7,< 1000,Nc1cnc(-c2nc(N3CCOCC3)nc3c2ncn3Cc2c(F)cccc2F)cn1
8,< 1000,Nc1cnc(-c2nc(N3CCOCC3)nc3c2ncn3C2CCc3ccccc32)cn1 (stereo not given)
9,< 1000,CCC(CC)n1cnc2c(-c3cnc(N)cn3)nc(N3CCOCC3)nc21
10,< 1000,Nc1cnc(-c2nc(N3CCOCC3)nc3c2ncn3Cc2ccccc2)cn1
11,< 1000,Nc1cnc(-c2nc(N3CCOCC3)nc3c2ncn3CC2CC2)cn1
12,< 1000,CCC(C#N)n1cnc2c(-c3cnc(N)cn3)nc(N3CCOCC3)nc21 (stereo not given)
13,< 1000,Nc1cnc(-c2nc(N3CCOCC3)nc3c2ncn3C2Cc3ccccc3C2)cn1
14,< 1000,Nc1cnc(-c2nc(N3CCOCC3)nc3c2ncn3C2CCN(c3ccccc3)C2)cn1 (stereo not given)
15,< 1000,COCC(C)n1cnc2c(-c3cnc(N)cn3)nc(N3CCOCC3)nc21 (stereo not given)
16,< 1000,Nc1cnc(-c2nc(N3CCOCC3)nc3c2ncn3C2CCC2)cn1
17,< 1000,Nc1cnc(-c2nc(N3CCOCC3)nc3[nH]cnc23)cn1
18,< 1000,Cc1cccc(-n2cnc3c(-c4cnc(N)cn4)nc(N4CCOCC4)nc32)c1
19,< 1000,Nc1cnc(-c2nc(N3CCOCC3)nc3c2nc(Br)n3C2CCOC2)cn1 (stereo not given)
20,< 1000,Nc1cnc(-c2nc(N3CCOCC3)nc3c2ncn3-c2ccccc2)cn1
21,< 1000,Nc1cnc(-c2nc(N3CCOCC3)nc3c2ncn3C2CCOC2)cn1 (stereo not given)
22,< 1000,CC(C)(C)Cn1cnc2c(-c3cnc(N)cn3)nc(N3CCOCC3)nc21
23,< 1000,Nc1cnc(-c2nc(N3CCOCC3)nc3c2ncn3C2CCc3ccccc3C2)cn1 (stereo not given)
24,< 1000,CCC(C)n1c(Br)nc2c(-c3cnc(N)cn3)nc(N3CCOCC3)nc21 (stereo not given)
25,< 1000,Nc1cnc(-c2nc(N3CCOCC3)nc3c2ncn3C2CCN(c3ccccc3)CC2)cn1
